Measurements reported in US5955506A, “Benzamides for neurodegenerative disorder treatment” (priority 1998, dated 1999).

How the values were obtained:
striatal dopamine [1] = assay: MPTP dopamine depletion model (mice, sacrificed 72 h after MPTP); format: in vivo, C57BL/6J mice; details: for protection from MPTP neurotoxicity, % of control / protection from the neurotoxic action of MPTP (in words): 50 mg/kg; for Dopamine, nM/mg ± S.E.M., test compound / Protection, %: 50 mg/kg p.o.; for Dopamine, nM/mg ± S.E.M., test compound / Protection, % / % non-MPTP control (striatal dopamine): 15 mg/kg MPTP model; for Protection, %: versus methyl cellulose control (Standard); for % non-MPTP control (striatal dopamine) / Dopamine/mg protein ± S.E.M.: 30 mg/kg p.o.; for Dopamine/mg protein ± S.E.M.: 30 min before 15 mg/kg MPTP s.c.; for prevention of dopamine depletion following MPTP challenge (in words): Table 1 results, 30 mg/kg; for Degree of protection, % (MPTP dopamine depletion test): Table 3, dose not given
Experimental: These findings have led to the development of an assay for agents effective in treating dopamine-associated neurodegenerative disorders, such as Parkinson's disease. In this assay, test animals are given an amount of MPTP adequate to severely depress their dopamine levels. Test compounds are administered to determine if they are capable of preventing the loss of dopamine in the test animals. To the extent that dopamine levels are retained, a compound can be considered to be an effective agent for slowing or delaying the course of neurodegenerative disease, e.g., Parkinson's disease. Dopamine Depletion Studies (MPTP Model) C57BL/6J mice were pretreated with either vehicle (1% methyl cellulose) or a drug (p.o.) 30 min before MPTP. MPTP was dissolved in isotonic saline (0.9%) and given subcutaneously as a single dose of 15 mg free base/kg body weight to produce a reduction in striatal dopamine to about 0.5 nanomoles/mg protein. Groups of mice (n=8-10 per group) received either vehicle plus saline, vehicle plus MPTP, or drug plus MPTP. Seventy two hours after receiving MPTP, mice were sacrificed using cervical dislocation and the striata were excised. The tissue was homogenized in 0.4 N perchloric acid, centrifuged, and the supernatant analyzed by high performance liquid chromatography/electro-chemical detection (HPLC/ED) for dopamine levels. Supernatants were stored in a -90° C. freezer between the time of collection and analysis. The drugs were combined with methyl cellulose and were homogenized in water for dosing. The dosage amount ranged from 10 to 50 mg/kg for CPI1160, CPI1189 and CPI1234, and from 50 to 100 mg/kg for CPI1020.

Aβ(1-40) = biological target: T1, Aβ(1-40) (Homo sapiens, UniProt P05067); assay: Aβ(1-40) β-pleated sheet formation, Thioflavin T fluorescence; format: biochemical; details: Aβ(1-40) 3 μg, PBS pH 6.0, 4 hours, read-out: % Protection (β-pleated sheet formation)
T1 construct: aggregated fibrils of synthetic Aβ(1-40)
T1 sequence (P05067 672-711 limits assumed): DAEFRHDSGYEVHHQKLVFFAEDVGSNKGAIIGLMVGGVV
Text: Effect of Benzamides on Aβ(1-40) β-Pleated Sheets Formation: Detection of Amyloid Aggregation in Solution by Thioflavin T Fluorescence Spectra
Several assays have been developed to assess the activity of compounds as agents for the treatment of Alzheimer's disease.
Thioflavin T (ThT) rapidly associates with β pleated sheets particularly the aggregated fibrils of synthetic Aβ(1-40), giving rise to a new excitation maximum at 440 nm and enhanced emission at 490 nm. According to this principle, agents which could delay or reverse the formation of such association might be of therapeutic benefit.
Experiments were performed in 96 well plates and the fluorescence changes were evaluated using Fluorescence plate reader-CytoFluor II. Briefly, into each well was aliquoted 95 μl of ThT (3 μM) prepared in PBS (pH 6.0), 2 μl of NRT (10 μM) prepared in 0.05% of methylcellulose in PBS (pH 6.0), and 3 μl of Aβ(1-40)(3 μg) prepared with dH2 O. The fluorescence measurement began when Aβ(1-40) was added and continued for 4 hours at which the aggregation reached a plateau. The % protection of β-pleated sheet formation was calculated from the relative fluorescence unit difference between aggregation in the presence and in the absence of test compounds.

striatal dopamine [2] = assay: Long term protective effect test in the MPTP model (sacrifice 3 or 14 days after dosing); format: in vivo, C57BL/6J mice
Experimental: C57BL/6J mice were pretreated with either vehicle (1% methyl cellulose) or a drug (p.o.) 30 min before MPTP. MPTP was dissolved in isotonic saline (0.9%) and given subcutaneously as a single dose of 15 mg free base/kg body weight to produce a reduction in striatal dopamine to about 0.5 nanomoles/mg protein. Groups of mice (n=8-10 per group) received either vehicle plus saline, vehicle plus MPTP, or drug plus MPTP. Seventy two hours after receiving MPTP, mice were sacrificed using cervical dislocation and the striata were excised. The tissue was homogenized in 0.4 N perchloric acid, centrifuged, and the supernatant analyzed by high performance liquid chromatography/electro-chemical detection (HPLC/ED) for dopamine levels. Supernatants were stored in a -90° C. freezer between the time of collection and analysis.
Additional studies were carried out to determine the long-term effect on dopamine depletion of the compounds of the invention. Using the general test method described above, C57BL/6J mice were pretreated with either vehicle or test compound and MPTP and then sacrificed either 3 or 14 days after dosing.

[3] = In vivo biotransformation of CPI1020 (metabolite in blood after oral administration); details: rats and mice, CPI1020 administered orally
Text: Commonly owned U.S. Pat. No. 5,472,983, referred to above, discloses several benzamides useful in treating neurodegenerative diseases based on their protective action in the MPTP mouse model of Parkinson's disease. […] This compound is likely formed in the body by reduction of the ring nitro of CPI1020 to an amino moiety (CPI1160) followed by acetylation of the amino function.

striatal dopamine [4] = assay: 6-Hydroxydopamine dopamine depletion model; format: in vivo, male Sprague Dawley rats; details: for Test side as percent of control side: right striatum injected with 6-hydroxydopamine
Experimental: Another assay for agents effective in treating dopamine-associated neurodegenerative disorders has been developed. In this assay, the striatum of test animals is injected with the neurotoxicant, 6-hydroxydopamine. 6-Hydroxydopamine has a dopamine-depleting action and is widely accepted as a model for these conditions. Test compounds are administered to determine if they are capable of preventing or reducing the loss of dopamine in the test animals. Again, to the extent that dopamine levels are retained, a compound can be considered an effective agent.
Tests were conducted to assess the ability of CPI-1189 to protect against 6-hydroxydopamine-induced damage. This is a widely accepted model for Parkinson's disease in which 6-hydroxydopamine is believed to produce its toxic effects by inducing oxidative stress. 6-hydroxydopamine has been used extensively since the 1960's as a neurotoxicant. Because 6-hydroxydopamine primarily affects catecholaminergic neurons, it has been mainly used for the experimental study of Parkinson's disease. The compound has had widespread use as a means of administering unilateral lesions in the nigrastriatal system. Animals treated with this toxin show biochemical and behavioral alterations that can be measured and probed pharmacologically to assess both the severity of the lesion and to determine the effect of potential therapeutic interventions.
The protective dose response of CPI-1189 to 6-hydroxydopamine-induced damage to the nigrastriatal system was determined. Damage to the nigrastriatal system was measured in terms of striatal dopamine levels.
Acclimated male Sprague Dawley rats, 55 to 120 days of age were used.
6-hydroxy-dopamine (Research Biochemicals Incorporated) was prepared in a 0.9% NaCl solution containing 0.1 mg/ml ascorbic acid on the morning of the experiment. […]
Immediately following sacrifice, dissected striatal tissue was collected and analyzed by HPLC/EC […] with the results shown in Table 5.

Row | inhibition at 10 µM (Aβ(1-40)) [%] | Molecule | % non-MPTP control (striatal dopamine) (striatal dopamine [1]) [%] | Dopamine/mg protein ± S.E.M. (striatal dopamine [1]) | prevention of dopamine depletion following MPTP challenge (in words) (striatal dopamine [1]) | Degree of protection, % (MPTP dopamine depletion test) (striatal dopamine [1]) [%] | also measured
1 | – | CC(C)(C)NC(=O)c1ccc([N+](=O)[O-])cc1 [CPI1020, N-tert-butyl-4-nitrobenzamide, reference compound] | – | – | – | – | protection from MPTP neurotoxicity, % of control (striatal dopamine [1]): 56 % of control; protection from the neurotoxic action of MPTP (in words) (striatal dopamine [1]): not as effective; Dopamine, nM/mg ± S.E.M., test compound (striatal dopamine [1]): 0.58 ± .14 nM/mg; Protection, % (striatal dopamine [1]): 56%
2 | 14.4 ± 14.4 | CC(C)NC(=O)c1ccc([N+](=O)[O-])cc1 [CPI1026, N-iso-propyl-4-nitrobenzamide] | – | – | – | – | –
3 | 31.7 ± 3.5 | CCC(C)(C)NC(=O)c1ccc([N+](=O)[O-])cc1 [CPI1033, N-tert-amyl-4-nitrobenzamide] | – | – | – | – | –
4 | – | CC(C)(C)NC(=O)c1ccc(N)cc1 [CPI1160, N-tert-butyl4-aminobenzamide] | 93.9 | 1.25 ± .05 /MG PROTEIN | effective in preventing dopamine depletion | 94 | –
5 | – | CC(=O)Nc1ccc(C(=O)NC(C)C)cc1 [CPI1232, N-iso-propyl-4-acetamidobenzamide] | – | – | – | 70 | –
6 | – | CCC(C)(C)NC(=O)c1ccc(NC(C)=O)cc1 [CPI1233, N-tert-amyl-4-acetamidobenzamide] | – | – | – | 40 | –
7 | – | CC(=O)Nc1cccc(C(=O)NC(C)(C)C)c1 [CPI1234, N-tert-butyl-3-acetamidobenzamide] | 76.7 | 1.02 ± .05 /MG PROTEIN | effective in preventing dopamine depletion | 77 | –
8 | – | N-methylcyclopropyl-4-acetamidobenzamide [CPI1241] | – | – | – | 40 | –

Row | Molecule | inhibition at 10 µM (Aβ(1-40)) [%] | % non-MPTP control (striatal dopamine) (striatal dopamine [1]) [%] | Dopamine/mg protein ± S.E.M. (striatal dopamine [1]) | prevention of dopamine depletion following MPTP challenge (in words) (striatal dopamine [1]) | Degree of protection, % (MPTP dopamine depletion test) (striatal dopamine [1]) [%] | also measured
9 | CC(=O)Nc1ccc(C(=O)NC(C)(C)C)cc1 [CPI1189, N-tert-butyl-4-acetamidobenzamide] | 48.3 ± 10.1 | 89.7 | 1.37 ± .14 /MG PROTEIN | effective in preventing dopamine depletion | – | Striatal dopamine, percent of methyl cellulose/saline control (striatal dopamine [2]; 3 Day Sac): 100%; Striatal dopamine, percent of methyl cellulose/saline control (striatal dopamine [2]; 14 Day Sac): 96.7%; protection against MPTP induced dopamine depletion (in words) (striatal dopamine [2]; sacrificed three days and fourteen days post MPTP): able to protect against MPTP induced dopamine depletion; protection from MPTP neurotoxicity, % of control (striatal dopamine [1]): 105 % of control; protection from the neurotoxic action of MPTP (in words) (striatal dopamine [1]): complete protection; Dopamine, nM/mg ± S.E.M., test compound (striatal dopamine [1]): 1.57 ± .11 nM/mg; Protection, % (striatal dopamine [1]): 105%; potency relative to CPI1020 in protecting mice from dopamine reduction in the striatum (striatal dopamine [1]; s.c. MPTP): approximately 10 times; in vivo biotransformation product of CPI1020 found in blood (in words) [3]: found in the blood of rats and mice; Test side as percent of control side (striatal dopamine [4]; 50 mg/kg oral): 72.82 ± 8.32%; Test side as percent of control side (striatal dopamine [4]; 100 mg/kg oral): 77.61 ± 13.5%; protection against 6-hydroxydopamine induced dopamine depletion (in words) (striatal dopamine [4]; rat, in vivo): able to protect against 6-hydroxydopamine induced dopamine depletion
